{
  "source": "patent US20110111417A1",
  "about": "“METHODS AND KITS FOR MONITORING THE EFFECTS OF IMMUNOMODULATORS ON ADAPTIVE IMMUNITY” (priority 2008, published 2011)",
  "key": {"germinal centers": {"system": "germinal centers", "assay": "Immunohistochemistry of mouse spleen cryosections (Bcl-6 germinal centers, CD3 T cells), scored by pathologist", "assay_type": "in vivo", "from_the_text": "(§1) Female C57BL/6 mice (Charles River Laboratories, Bedford, Mass.) were used in these studies and treated with a beta-carboline, N-(6-chloro-7-methoxy-9H-beta-carbolin-8-yl)-2-methyl-nicotinamide (ML120B) following three different treatment regimens, A, B, and C. After the treatment, animals were euthanized and tissues were collected and frozen. Germinal centers were identified by immunohistochemistry (IHC) of cryosections (6 μm) using an antibody to mouse Bcl-6. T cells also were identified by IHC of serial cryosections, using an antibody to mouse CD3. The size and/or frequency of germinal centers and T cells were scored by a board-certified anatomic pathologist, using a 0 (low) to 4 (high) scale.\n(§2) Mice were given a single oral dose of ML120B as indicated (n=4/group) for 6 hours. The level of mouse mu heavy chain germline transcript was measured in RNA isolated from serial cryosections by qRT-PCR.\n(§3) Mice were given a single oral dose of ML120B as indicated (n=4/group) for 18 hours. The level of mouse mu heavy chain germline transcript was measured in RNA isolated from serial cryosections by qRT-PCR.\nMice were given twice daily oral dose of ML120B by gavage, as indicated (n=4/group) for four days. The level of mouse mu, gamma 3 and gamma 1 heavy chain germline transcript, AICDA transcript, gamma 1 & 2 circle transcript and 18S rRNA were measured in RNA isolated from serial cryosections by qRT-PCR. […] Germinal centers expressing Bcl-6 decreased 10-fold at 300 mg/kg (FIG. 3). Germline transcripts mu, gamma 3 and gamma 1 decreased from 10-1000-fold at 300 mg/kg (FIG. 3). Transcripts encoding AICDA decreased 100-1000-fold at 300 mg/kg (FIG. 3). Circle transcript gamma 1&2 decreased 10-fold at 100 mg/kg (FIG. 3)."}, "[1]": {"system": "switch transcripts in mouse spleens", "assay": "qRT-PCR of switch transcripts in mouse spleens", "assay_type": "in vivo", "settings": "spleen", "from_the_text": "as §1\nTotal ribonucleic acid (RNA) was isolated from 10 spleen cryosections, each […], using the RNEASY® Universal Tissue 8000 Kit (QIAGEN Inc., Valencia, Calif.) on a BIOROBOT® 8000 Workstation (QIAGEN INC., Valencia, Calif.), and deoxyribonucleic acidase (DNASE)-treated according to the manufacturer's protocol. The purity and yield of the RNA were assessed via spectrophotometry from 220 to 750 nm using the NANODROP® ND-1000 (NANODROP Technologies, Wilmington, Del.). The integrity of the RNA was measured with the RNA 6000 NANO LABCHIP® Kit (AGILENT Technologies, Foster City, Calif.) on an AGILENT 2100 Bioanalyzer (AGILENT Technologies, Foster City, Calif.) and calculated using the RNA integrity number (RIN) algorithm (Schroeder et al. (2006) BMC Mol. Biol. 7:3). Deoxyribonucleic acidase-treated RNA was extracted from the samples and stored at −80° C. First strand complementary deoxyribonucleic acid (cDNA) synthesis was performed using a TAQMAN® Gold RT Master Mix (Applied Biosystems, Foster City, Calif.) according to the manufacturer's protocol, except that both oligothymidylic (oligo[dT]) and random hexamers were used for priming. The quality of synthesized cDNA was assessed by generating expression profiles of endogenous reference genes with a real-time polymerase chain reaction (PCR) system, the ABI PRISM® 7900HT Sequence Detection System (Applied Biosystems, Foster City, Calif.). Complementary deoxyribonucleic acid samples were stored at −20° C.\nSequences for all biomarkers (Table 1) were derived from mouse and human deoxyribonucleic acid (DNA) sequence (GENBANK® database [online] maintained by National Center for Biotechnology Information, Bethesda, Md.). Quantitative reverse-transcriptase polymerase chain reaction assays were performed on an ABI PRISM® 7900HT Sequence Detection System (Applied Biosystems, Inc. (Foster City, Calif.) using a SYBR-green detection system (Qiagen Inc., Valencia, Calif.). All quantitative assays were run using universal thermal cycling parameters: hold at 95° C. for 2 minutes to activate the DNA polymerase, then run 40 three-part cycles (95° C. for 20 seconds, 58° C. for 20 seconds, and 76° C. for 20 seconds). Data were analyzed using sequence detection system (SDS) software, Version 1.7 (Applied Biosystems, Inc. (Foster City, Calif.). […] From each amplification plot, a threshold cycle (Ct) value was calculated. […] The Ct values were exported to an EXCEL® (MICROSOFT Corp., Redmond, Wash.) spreadsheet and relative expression (x) was calculated as shown in equation 2.\nas §2, §3\nMice were given twice daily oral dose of ML120B by gavage, as indicated (n=4/group) for four days. The level of mouse mu, gamma 3 and gamma 1 heavy chain germline transcript, AICDA transcript, gamma 1 & 2 circle transcript and 18S rRNA were measured in RNA isolated from serial cryosections by qRT-PCR. […]"}, "[2]": {"settings": "single oral dose 300 mg/kg, 18 hours"}, "[3]": {"settings": "single oral dose, within first 6 hours"}, "[4]": {"settings": "twice daily oral 300 mg/kg, four days"}},
  "data": [
    {"smiles": "COc1c(Cl)cc2c([nH]c3cnccc32)c1NC(=O)c1cccnc1C", "note": "[ML120B, N-(6-chloro-7-methoxy-9H-beta-carbolin-8-yl)-2-methyl-nicotinamide]", "values": [
      {"measurement": "reduction in germinal centers", "setting": "germinal centers; [2]", "result": 10, "unit": "fold"},
      {"measurement": "frequency of T cells", "setting": "germinal centers; single oral dose, 6 hours", "result": "remained unchanged"},
      {"measurement": "frequency of T cells", "setting": "germinal centers; single oral dose, 18 hours", "result": "remained unchanged"},
      {"measurement": "decrease in frequency of germinal centers", "setting": "germinal centers; [3]", "result": 50, "unit": "%"},
      {"measurement": "decrease in germinal centers expressing Bcl-6", "setting": "germinal centers; [4]", "result": 10, "unit": "fold"},
      {"measurement": "reduction in mu germline transcripts", "setting": "[1]; [2]", "result": 1000, "unit": "fold"},
      {"measurement": "level of 18S rRNA", "setting": "[1]; single oral dose, 18 hours", "result": "remained unchanged"},
      {"measurement": "decrease in level of mu germline transcripts", "setting": "[1]; [3]", "result": 50, "unit": "%"},
      {"measurement": "decrease in circle transcript gamma 1&2", "setting": "[1]; twice daily oral 100 mg/kg, four days", "result": 10, "unit": "fold"},
      {"measurement": "decrease in germline transcripts mu, gamma 3 and gamma 1", "setting": "[1]; [4]", "result": "10-1000 fold"},
      {"measurement": "decrease in transcripts encoding AICDA", "setting": "[1]; [4]", "result": "100-1000 fold"},
      {"measurement": "level of 18S rRNA", "setting": "[1]; twice daily oral, four days", "result": "remained unchanged"}
    ]}
  ]
}
